According to ChEMBL document CHEMBL1131893, “Antitumor agents 201. Cytotoxicity of harmine and beta-carboline analogs” (1999):
Converted amounts (≈) assume the structure as drawn. The source made the active and inactive calls. No cut-off for these calls is given here.

What was measured:
[1] = test system: 1A9; test: In vitro cytotoxic activity was determined against ovarian cancer (1A9) cell line; assay type: functional; conditions: Homo sapiens, read-out: ED50 (the source's name)
[2] = test system: A549; test: In vitro cytotoxic activity was determined against lung carcinoma (A549) cell line; assay type: functional; conditions: Homo sapiens, read-out: ED50 (the source's name)
[3] = test system: CAKI-1; test: In vitro cytotoxic activity was determined against renal cancer (CAKI-1) cell line; assay type: functional; conditions: Homo sapiens, read-out: ED50 (the source's name)
[4] = test system: U-87 MG; test: In vitro cytotoxic activity against U-87-MG (glioblastoma) cell line.; assay type: functional, U-87MG ATCC; conditions: Homo sapiens, read-out: ED50 (the source's name)
[5] = test system: MCF7; test: In vitro cytotoxic activity against MCF-7 (human breast cancer) cell line.; assay type: functional; conditions: read-out: ED50 (the source's name)
[6] = test system: SK-MEL-2; test: In vitro cytotoxic activity was determined against melanoma cancer (SK-MEL-2) cell line; assay type: functional; conditions: Homo sapiens, read-out: ED50 (the source's name)
[7] = test system: KB; test: In vitro cytotoxic activity was determined against epidermoid carcinoma of the nasopharynx (KB) cell line; assay type: functional; conditions: Homo sapiens, read-out: ED50 (the source's name)
[8] = test system: SAOS-2; test: In vitro cytotoxic activity was determined against osteosarcoma (SaOS-2) cell line; assay type: functional; conditions: Homo sapiens, read-out: ED50 (the source's name)
[9] = test system: HCT-8; test: In vitro cytotoxic activity was determined against ileocecal carcinoma (HCT-8) cell line; assay type: functional; conditions: Homo sapiens, read-out: ED50 (the source's name)
[10] = test system: HEL; test: In vitro cytotoxic activity was determined against embryonic lung fibroblast (HEL) cell line; assay type: functional; conditions: Homo sapiens, read-out: ED50 (the source's name)
[11] = test system: HOS; test: In vitro cytotoxic activity was determined against osteosarcoma ( HOS) cell line; assay type: functional; conditions: Homo sapiens, read-out: ED50 (the source's name)
[12] = test system: HCT-8; test: In vitro cytotoxic activity was determined against ileocecal carcinoma (HCT-8) cell line; Not active; assay type: functional, cell-based; conditions: Homo sapiens
[13] = test system: SK-MEL-2; test: In vitro cytotoxic activity was determined against melanoma cancer (SK-MEL-2) cell line; Not active; assay type: functional, cell-based; conditions: Homo sapiens
[14] = test system: U-87 MG; test: In vitro cytotoxic activity was determined against glioblastoma (U-87-MG) cell line; Not active; assay type: functional, cell-based; conditions: Homo sapiens; U-87MG ATCC
[15] = test system: KB; test: In vitro cytotoxic activity was determined against drug resistant tumor cell line KB-VIN (expressing P-glycoprotein); assay type: functional; conditions: Homo sapiens, read-out: ED50 (the source's name)
[16] = test system: KB; test: In vitro cytotoxic activity was determined against drug resistant tumor cell line KB-7d (pleotrophic resistance including MRP multidrug resistant protein); assay type: functional; conditions: Homo sapiens, read-out: ED50 (the source's name)
[17] = test system: KB; test: In vitro cytotoxic activity was determined against drug resistant tumor cell line KB-CPT (pleotrophic mechanism including level of topoisomerase I); assay type: functional; conditions: Homo sapiens, read-out: ED50 (the source's name)
[18] = test system: MCF7; test: In vitro cytotoxic activity was determined against breast cancer (MCF-7) cell line; Not active; assay type: functional, cell-based; conditions: Homo sapiens
[19] = test system: KB; test: In vitro cytotoxic activity was determined against epidermoid carcinoma of the nasopharynx (KB) cell line; Not active; assay type: functional, cell-based; conditions: Homo sapiens
[20] = test system: CAKI-1; test: In vitro cytotoxic activity was determined against renal cancer (CAKI-1) cell line; Not active; assay type: functional, cell-based; conditions: Homo sapiens

Row | SMILES | EC50 [1] [µg/mL] | EC50 [2] [µg/mL] | EC50 [3] [µg/mL] | EC50 [4] [µg/mL] | EC50 [5] [µg/mL] | EC50 [6] [µg/mL] | EC50 [7] [µg/mL] | EC50 [8] [µg/mL] | EC50 [9] [µg/mL] | EC50 [10] [µg/mL] | EC50 [11] [µg/mL] | ED50 [12] | ED50 [13] | ED50 [14] | EC50 [15] [µg/mL] | EC50 [16] [µg/mL] | EC50 [17] [µg/mL] | ED50 [18] | ED50 [19] | ED50 [20]
1 | COc1ccc2c(c1)[nH]c1c(/C=C/c3ccc([N+](=O)[O-])cc3)nccc12 | 0.3 (≈ 0.869 µM) | 0.9 (≈ 2.61 µM) | 7 (≈ 20.3 µM) | 1.2 (≈ 3.47 µM) | 1.2 (≈ 3.47 µM) | 1 (≈ 2.9 µM) | 0.5 (≈ 1.45 µM) | 0.9 (≈ 2.61 µM) |  |  |  |  |  |  |  |  |  |  |  | 
2 | CCn1c2cc(OC)ccc2c2ccnc(C)c21 | 1.8 (≈ 7.49 µM) | 4.2 (≈ 17.5 µM) | 7.4 (≈ 30.8 µM) | 7.4 (≈ 30.8 µM) | 5.3 (≈ 22.1 µM) |  | 1.8 (≈ 7.49 µM) |  | > 20 |  |  |  |  |  |  |  |  |  |  | 
3 | Cc1[nH]ccc2c1[nH]c1cc(=O)ccc12 [HARMOL] | 3.8 (≈ 19.2 µM) | 6.5 (≈ 32.8 µM) | 9.2 (≈ 46.4 µM) | 4.2 (≈ 21.2 µM) | 9.2 (≈ 46.4 µM) |  | 4.4 (≈ 22.2 µM) |  |  |  |  |  |  |  |  |  |  |  |  | 
4 | CCCCCCCCC1NC(C(=O)O)Cc2c1[nH]c1cc(OC)ccc21 (stereo not drawn) | > 20 | > 20 | > 20 |  |  |  | > 20 |  |  |  |  |  |  |  |  |  |  |  |  | 
5 | CCOc1ccc2c(c1)[nH]c1c(C)nccc12 | 8 (≈ 35.4 µM) | 5 (≈ 22.1 µM) | 9 (≈ 39.8 µM) |  | 5 (≈ 22.1 µM) | 9.5 (≈ 42 µM) | 10.2 (≈ 45.1 µM) | 20 (≈ 88.4 µM) |  |  |  |  |  |  |  |  |  |  |  | 
6 | CCC(CC)C1NC(C(=O)O)Cc2c1[nH]c1cc(OC)ccc21 (stereo not drawn) | > 20 | > 20 | > 20 |  |  |  | 20 (≈ 63.2 µM) |  |  | > 20 |  |  |  |  |  |  |  |  |  | 
7 | COc1ccc2c3ccn(C)c(C)c-3nc2c1 | 7 (≈ 30.9 µM) | 2.7 (≈ 11.9 µM) | 7.8 (≈ 34.5 µM) | 9 (≈ 39.8 µM) | 5.6 (≈ 24.7 µM) | 10 (≈ 44.2 µM) | 6.4 (≈ 28.3 µM) | 9.6 (≈ 42.4 µM) |  |  |  |  |  |  |  |  |  |  |  | 
8 | COc1ccc2c3c([nH]c2c1)C(C)N(N=O)CC3 (stereo not drawn) | > 10 | > 10 | > 10 | > 10 | > 10 | > 10 | 4.7 (≈ 19.2 µM) | > 10 |  |  |  |  |  |  |  |  |  |  |  | 
9 | Cc1nccc2c1[nH]c1cc(OC(=O)C34CCC(C)(C(=O)O3)C4(C)C)ccc12 (stereo not drawn) | 19.5 (≈ 51.5 µM) | 17 (≈ 44.9 µM) | > 20 |  | 20 (≈ 52.9 µM) | > 20 | > 10 | > 20 |  |  |  |  |  |  |  |  |  |  |  | 
10 | COc1ccc2c(c1)[nH]c1c(C)[n+](C)ccc12.[I-] | 7 | 0.9 | 8.9 | 6.2 | 6.2 | 8.4 | 7.2 | 8.2 |  |  |  |  |  |  |  |  |  |  |  | 
11 | Cc1nccc2c1[nH]c1cc(OC(C)C)ccc12 | 7.9 (≈ 32.9 µM) | 17 (≈ 70.7 µM) | 12.3 (≈ 51.2 µM) | 16.4 (≈ 68.2 µM) | 11.9 (≈ 49.5 µM) |  | 12.8 (≈ 53.3 µM) |  |  |  | 10.2 (≈ 42.4 µM) | inactive | inactive |  |  |  |  |  |  | 
12 | Br.COc1ccc2c3c([nH]c2c1)C(C)=NCC3 | > 10 | 9.8 | > 10 | 9.8 | 10 | > 10 | 9.7 | 6.8 |  |  |  |  |  |  |  |  |  |  |  | 
13 | Cc1cc(O)n2c(n1)nc1ccccc12 | > 10 | > 10 | > 10 |  | > 10 | > 10 | > 10 | > 10 |  |  |  |  |  | inactive |  |  |  |  |  | 
14 | CCCn1c2cc(OC)ccc2c2cc[n+](C)c(C)c21.[I-] | < 1.3 | 4 | 9.2 | > 20 | > 20 | 18 | 1.8 |  |  | 15 |  |  |  |  | > 40 | 35.5 | 3 |  |  | 
15 | CCCCn1c2cc(OC)ccc2c2ccnc(C)c21 | 2.2 (≈ 8.2 µM) | 6 (≈ 22.4 µM) | 11 (≈ 41 µM) | 12.3 (≈ 45.8 µM) | 9.5 (≈ 35.4 µM) |  | 7.8 (≈ 29.1 µM) |  | > 20 |  |  |  |  |  |  |  |  |  |  | 
16 | COc1ccc2c(c1)[nH]c1c(C)nccc12 [HARMINE] | 1.6 (≈ 7.54 µM) | 2.4 (≈ 11.3 µM) | 1.9 (≈ 8.95 µM) | 14.5 (≈ 68.3 µM) | 10.5 (≈ 49.5 µM) | 18.5 (≈ 87.2 µM) | 2.2 (≈ 10.4 µM) |  |  | 1.9 (≈ 8.95 µM) |  |  |  |  | 2.5 (≈ 11.8 µM) | 3.7 (≈ 17.4 µM) | 4.3 (≈ 20.3 µM) |  |  | 
17 | Cc1nccc2c1[nH]c1ccccc12 [HARMAN] | 6.1 (≈ 33.5 µM) | 9.3 (≈ 51 µM) | 8 (≈ 43.9 µM) | 19 (≈ 104 µM) | 19 (≈ 104 µM) | > 20 | 8.9 (≈ 48.8 µM) |  |  | 9.8 (≈ 53.8 µM) |  |  |  |  | 17.5 (≈ 96 µM) | 16.5 (≈ 90.5 µM) | 15 (≈ 82.3 µM) |  |  | 
18 | COS(=O)(=O)O.Cc1nccc2c1[nH]c1ccccc12 | > 20 | > 20 | > 20 |  |  |  | 10.5 |  |  | > 20 |  |  |  |  |  |  |  |  |  | 
19 | CC(=O)Oc1ccc2c(c1)[nH]c1c(C)nccc12 | 4.5 (≈ 18.7 µM) | 4.3 (≈ 17.9 µM) | 10.2 (≈ 42.5 µM) |  | 7.5 (≈ 31.2 µM) | 5 (≈ 20.8 µM) | 19.5 (≈ 81.2 µM) | > 20 |  |  |  |  |  |  |  |  |  |  |  | 
20 | CCCCCCCCCCOc1ccc2c(c1)[nH]c1c(C)nccc12 | 1.4 (≈ 4.14 µM) | 1.2 (≈ 3.55 µM) | 5 (≈ 14.8 µM) | 5.4 (≈ 16 µM) | 3.8 (≈ 11.2 µM) |  | 2 (≈ 5.91 µM) |  | 4.1 (≈ 12.1 µM) |  | 6.7 (≈ 19.8 µM) |  |  |  |  |  |  |  |  | 
21 | COc1cc2[nH]c3c(C)nccc3c2cc1Br | 2.3 (≈ 7.9 µM) | 13.6 (≈ 46.7 µM) | 6.7 (≈ 23 µM) | 14 (≈ 48.1 µM) | 14.6 (≈ 50.1 µM) | > 20 | 7.9 (≈ 27.1 µM) |  | 16 (≈ 55 µM) |  | 6.5 (≈ 22.3 µM) |  |  |  |  |  |  |  |  | 
22 | CCCCCCCCCCCCCCCCOc1ccc2c(c1)[nH]c1c(C)nccc12 | 8 (≈ 18.9 µM) | 5 (≈ 11.8 µM) |  |  |  |  |  |  |  |  | 5 (≈ 11.8 µM) | inactive |  |  |  |  |  | inactive | inactive | inactive
23 | CCCCCCOc1ccc2c(c1)[nH]c1c(C)nccc12 | 1.9 (≈ 6.73 µM) | 4.4 (≈ 15.6 µM) | 2.2 (≈ 7.79 µM) | 4.2 (≈ 14.9 µM) | 3.1 (≈ 11 µM) | > 5 | 2.4 (≈ 8.5 µM) |  | 3.8 (≈ 13.5 µM) |  | 2.5 (≈ 8.85 µM) |  |  |  |  |  |  |  |  | 
24 | Br.COc1cc2[nH]c3c(C)nccc3c2cc1Br | 1.9 | 3.9 | 7.3 | 6.7 | 5.6 | 5 | 3.5 | 6.8 |  |  |  |  |  |  |  |  |  |  |  | 
25 | COc1ccc2c3ccnc(C)c3n(C)c2c1 | 1.8 (≈ 7.95 µM) | 4.2 (≈ 18.6 µM) | 5 (≈ 22.1 µM) | 7.8 (≈ 34.5 µM) | 4.3 (≈ 19 µM) |  | 2.2 (≈ 9.72 µM) |  | > 20 |  |  |  |  |  |  |  |  |  |  | 
26 | CCC[n+]1ccc2c([nH]c3cc(OC)ccc32)c1C.[I-] | 2 | 15 | 15 |  |  |  | 5 |  |  | 9.5 |  |  |  |  |  |  |  |  |  | 
